The source of these data is patent US20190216891A1, “METHOD FOR MODULATING MYELINATION” (Yeda Research and Development Co., Ltd., priority 2016, published 2019).

Each structure is given as a SMILES string. Entries after “also recorded” stand apart in the source; their conditions may differ.

Holding throughout (assay type): cell-based, mouse
In test [1] the test system is oligodendrocytes co-cultured with DRG neurons. The experiment in a line: OPC/DRG neuron co-cultures: PLP-positive oligodendrocytes associated with axonal Caspr clustering. The text has this:
FIGS. 5A-H illustrate that Gpr37-dependent inhibition of oligodendrocyte differentiation is mediated by ERK phosphorylation and nuclear translocation. A. Immunolabeling of sagittal brain sections of P12 brain stems from wild type (WT) and KO (Gpr37^−/−) mice using antibodies to phosphorylated ERK (pERK) and Olig2. B. The number of pERK and Olig2 positive cells in Gpr37^−/− compared to WT brainstem (*P<0.05, n=5 images from two mice per genotype). C. Western blot analysis of purified OPC cultures at DIV7 (three cultures per each genotype are shown). Blots were incubated with antibodies to pERK or general ERK (ERK) as indicated. D. Relative value of pERK intensity normalized by general ERK (p=0.02, n=7 cultures each genotype). E. pERK is present in the nucleus of oligodendrocytes lacking Gpr37. […] (* p<0.05, n=3 different primary cultures for each genotype; 100 PLP-positive oligodendrocytes were counted per each culture). […] H. Quantitation of the results showing the fold change in the percent of PLP-positive cells that associate with axonal Caspr immunoreactivity in all samples compare to the non-treated wild type cultures. […]
Immunofluorescence and Immunoblotting For immunohistochemistry, mice were anesthetized and perfused with 2% PFA/PBS. […] Western blot analysis was done using OPC cultures lysed in loading buffer and chemiluminescence was detected using the ChemiDoc MP System (Bio-Rad). […]

Test [2] shares this test system. Kind of test: Number of Olig2 cells in oligodendrocyte/DRG neuron co-cultures. The note with it: both genotypes (WT and Gpr37−/−); 6 days treatment, fixed at DIV7. How it is done:
(§1) FIGS. 11A-B illustrate that EPE blocks the nuclear translocation of pERK in Gpr37 null oligodendrocytes. A. Cultured OPCs isolated from WT and Gpr37^−/− mice were grown for 3 days (DIV2-DIVS) in the presence or absence (control) of EPE, followed by immunolabeling with antibodies to pERK and PLP. The nuclei were labeled with Dapi. PLP and pERK immunoreactivity are shown in separate images along with the Dapi signal. Higher magnification of the nucleus is shown in the insets in each panel. […] Scale bar, 50 μm. […] Cultures were grown in the absence (DME), or presence of EPE, PLX4032, or DMSO as control for 6 days, and then fixed at DIV7 and labeled with antibodies to Olig2. The number of positive cells per field of view is shown in the graph. Bars represent mean±SEM (n=3 different cultures per each genotype; 10 fields of view were analyzed for each culture).
(§2) Immunofluorescence and Immunoblotting For immunohistochemistry, mice were anesthetized and perfused with 2% PFA/PBS. Brains and optic nerves were isolated and post fixed on ice for 15 min, followed by 30% sucrose/ PBS at 4° C. overnight. Tissues were embedded in OCT and sectioned. Sections were permeabilized in methanol at −20° C. for 5 min. […] Western blot analysis was done using OPC cultures lysed in loading buffer and chemiluminescence was detected using the ChemiDoc MP System (Bio-Rad). […]

Another test relates to wild type OPC cultures. The experiment in a line: Oligodendrocyte differentiation in wild type OPC cultures (PLP and O4 immunolabeling). The note with it: wild type OPC cultures grown four days with 1mM IBMX. On the procedure:
A. Immunolabeling of wild type OPC cultures grown for four days in the absence (Control) or presence of 1mM 3-isobutyl-1-methylxanthine (IBMX) using antibodies to PLP and O4. Dapi was used to label the nuclei. Scale bar, 50 μm. B. Percentage of PLP-positive oligodendrocytes among the total O4-positive cells (**P<0.01, t-test, n=3 cultures). Bars represent mean±SEM.
as §2, with “min. Immunostaining of GPR37 was carried out using 2%PFA-perfused mouse brain sections that were permeabilized with cold acetone and blocked with 5% fish gelatin and 0.5% Triton-X100 at RT for 1 hr. For immunocytochemistry, cells were fixed with 4% PFA/ PBS for 15min at room temperature. For O4 staining, live cells were incubated with medium containing the O4 antibody at 37° C. for 45min before fixation.” for “min.”

For test [3], the system named is nuclear translocation of ERK1/2. The experiment in a line: Nuclear localization of pERK in cultured OPCs (immunolabeling pERK, PLP, Dapi). The note with it: Gpr37−/− OPCs (DIV7). On the procedure:
as §1
FIGS. 12A-D illustrate the involvement of cAMP in Gpr37 signaling in oligodendrocytes. A-B. Absence of Gpr37 results in increased levels of cAMP in mice brain (A) and cultured OPCs (B). Intracellular cAMP was extracted from P70 mice brains (*P<0.05, t-test; n=6 WT and n=7 KO mice), or from DIV5 cultured OPCs (*P<0.01, t-test; n=3 different OPC primary cultures of each genotype) and detected by ELISA. C. Adenylate cyclase inhibition prevents the nuclear translocation of pERK in Gpr37^−/− OPCs. Cultured wild type (WT) and Gpr37^−/− OPCs (DIV7) were left untreated (control) or treated with the adenylyl cyclase inhibitor SQ22536 (0.1 mM) for 2 hours in their growth medium. Cells were then fixed and labeled with Dapi to mark their nuclei, and with antibodies to PLP and pERK. […] Bars show mean±SEM (*P<0.01, t-test; n=3 different primary cultures for each genotype; 50 PLP-positive cells were counted per each culture).
FIGS. 13A-B illustrate that inhibition of Epac activity attenuates nuclear translocation of ERK1/2 in oligodendrocytes lacking GPR37. […] Bars show mean±SEM (*P<0.05, **P<0.01, t-test; n=3 different primary cultures for each genotype; 100 PLP-positive cells were counted per each culture). […]

Regarding `CCCS(=O)(=O)Nc1ccc(F)c(C(=O)c2c[nH]c3ncc(-c4ccc(Cl)cc4)cc23)c1F` [PLX4032], the “number of PLP-positive oligodendrocytes associated with intense axonal clustering of Caspr” value in test [1] (Gpr37−/− oligodendrocytes with wild type DRG neurons, 6 days in 10 μM EPE or 1 μM PLX4032, vs DMSO control) is given as “completely abolished; also recorded: significantly low number”. Also, in test [1] (wild type cultures, 6 days in 10 μM EPE or 1 μM PLX4032), the “PLP-positive oligodendrocytes associated with axonal clustering of Caspr” value was “no effect”. Further, in test [2], the “number of Olig2 cells (per field of view)” value was “do not affect”. On to `CC(C)Cn1c(=O)n(C)c(=O)c2[nH]cnc21` [IBMX, 3-isobutyl-1-methylxanthine], for which the “oligodendrocyte differentiation (percentage of PLP-positive oligodendrocytes among total O4-positive cells)” value in the test on wild type OPC cultures is “enhances the differentiation; also recorded: enhances oligodendrocyte differentiation”. In the case of `Nc1ncnc2c1ncn2C1CCCO1` (stereo not shown) [SQ 22536], the “number of oligodendrocytes displaying nuclear localization of pERK (ERK1/2)” value in test [3] (SQ22536 0.1 mM for 2 hours) was “significant decrease”; in test [3] (SQ22536 0.1 mM for 2 hours, listed as SQ22536) it was “reduced to equivalent levels of wild type cells”.

For `CC(C)(C)c1cc(C(=O)/C(C#N)=N/Nc2cccc(Cl)c2)no1` [ESI-09], the “number of oligodendrocytes displaying nuclear localization of pERK (ERK1/2)” value in test [3] (ESI-09 1 μM for 2 hours, vs DMSO) is “significant decrease; also recorded: reduced to equivalent level of wild type cells”.
